In ChEMBL document CHEMBL1159196, “Lignans interfering with 5 alpha-dihydrotestosterone binding to human sex hormone-binding globulin” (J Nat Prod, 1998):

Experiments:
[1] = target: T1, Sex hormone-binding globulin (Homo sapiens) (UniProt P04278); assay: Binding affinity to SHBG
T1 sequence (whole entry): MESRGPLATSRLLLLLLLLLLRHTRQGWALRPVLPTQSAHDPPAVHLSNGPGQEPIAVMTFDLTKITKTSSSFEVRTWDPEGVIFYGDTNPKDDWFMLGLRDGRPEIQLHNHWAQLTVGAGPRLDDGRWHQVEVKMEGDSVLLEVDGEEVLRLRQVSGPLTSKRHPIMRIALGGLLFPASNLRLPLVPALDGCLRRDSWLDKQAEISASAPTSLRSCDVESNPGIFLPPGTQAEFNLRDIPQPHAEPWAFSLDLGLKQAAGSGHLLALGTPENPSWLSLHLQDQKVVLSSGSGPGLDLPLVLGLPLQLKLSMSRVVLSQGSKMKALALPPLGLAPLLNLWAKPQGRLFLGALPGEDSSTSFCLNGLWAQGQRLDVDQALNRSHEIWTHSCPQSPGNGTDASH

[2] = target: T1, Sex hormone-binding globulin (Homo sapiens); assay: Binding affinity to human serum SHBG at 4 degC by competitive inhibition assay
[3] = target: T1, Sex hormone-binding globulin (Homo sapiens); assay: Binding affinity to SHBG at 4 degC
[4] = target: T2, Sex hormone-binding globulin (Homo sapiens, UniProt P04278); assay: Displacement of [3H]DHT from human serum SHBG
T2 sequence (P04278 whole entry): T1 sequence (whole entry)

| Structure (SMILES) | Ka [1] | IC50 [4] [µM] | further results |
| --- | --- | --- | --- |
| C[C@]12CCC(=O)C[C@@H]1CC[C@@H]1[C@@H]2CC[C@]2(C)[C@@H](O)CC[C@@H]12 | 2 ×10⁹ /M |  |  |
| COc1cc(C[C@H]2COC[C@@H]2Cc2ccc(O)c(OC)c2)ccc1O |  |  | Ka [2]: 3.2 ×10⁶ /M; Ka [3]: 0.98 ×10⁹ /M |
| C[C@]12CC[C@H]3[C@@H](CCC4=CC(=O)CC[C@@]43C)[C@@H]1CC[C@@H]2O | 1 ×10⁹ /M |  |  |
| COc1cc(C[C@@H](CO)[C@H](CO)Cc2ccc(O)c(OC)c2)ccc1O [(+)-SECOISOLARICIRESINOL] |  | 230 |  |
| COc1cc(C[C@H]2COC(=O)[C@@H]2Cc2ccc(O)c(OC)c2)ccc1O [MATAIRESINOL] |  | 52 |  |
| C[C@]12CC[C@@H]3c4ccc(O)cc4CC[C@H]3[C@@H]1CC[C@@H]2O | 5 ×10⁸ /M |  |  |
| O=C1OCC(Cc2cccc(O)c2)C1Cc1cccc(O)c1 (racemic) |  | 620 |  |
